Test results published in paper PMC6211260 (Journal of Enzyme Inhibition and Medicinal Chemistry, 2018).

Assays:
Assay type in all cases: cell-based
renal cancer cell lines = test: NCI five-dose testing, subpanel mean; conditions: subpanel VII: renal cancer
Description: (§1) Screening against the cancer cell lines was carried out at the National Cancer Institute (NCI, Bethesda, Maryland, USA) applying the standard protocol of the NCI[22].

[1] = system: prostate cancer cell lines; test: NCI five-dose testing, subpanel mean; conditions: subpanel VIII: prostate cancer
Description: as §1

breast cancer cell lines = test: NCI five-dose testing, subpanel mean; conditions: subpanel IX: breast cancer
Description: as §1

Leukaemia cell lines = test: NCI five-dose testing, subpanel mean; conditions: subpanel I: Leukaemia
Description: as §1

[2] = system: non-small cell lung cancer cell lines; test: NCI five-dose testing, subpanel mean; conditions: subpanel II: non-small cell lung cancer
Description: as §1

[3] = system: ovarian cancer cell lines; test: NCI five-dose testing, subpanel mean; conditions: subpanel VI: ovarian cancer
Description: as §1

melanoma cell lines = test: NCI five-dose testing, subpanel mean; conditions: subpanel V: melanoma
Description: as §1

colon cancer cell lines = test: NCI five-dose testing, subpanel mean; conditions: subpanel III: colon cancer
Description: as §1

CNS cancer cell lines = test: NCI five-dose testing, subpanel mean; conditions: subpanel IV: CNS cancer
Description: as §1

NCI-60 cell line panel = test: NCI-60 single-dose (10 µM) antiproliferative screening, mean over panel; conditions: single-dose 10 µM, 60-cancer cell line screening
Description: as §1
The final target compounds were submitted to the National Cancer Institute (NCI), Maryland, USA[23]. Thirty-one compounds were selected to be tested over 60 cell lines at single dose 10 µM.

[4] = system: HOP-92 non-small cell lung cancer cell line; test: NCI five-dose testing; conditions: Homo sapiens; for IC50: HOP-92; for IC (TGI): HOP-92, HOP-92, read-out: TGI (total growth inhibition concentration); for LD50 (lethal dose 50): HOP-92, read-out: LD50 (lethal dose 50)
Description: as §1

[5] = system: K-562 leukaemia cell line; test: NCI five-dose testing; conditions: Homo sapiens; for CC50: K562, read-out: LD50 (lethal dose 50); for IC50 / IC (TGI): K562, K-562; for IC (TGI): read-out: TGI (total growth inhibition concentration)
Description: as §1

[6] = system: PC-3 prostate cancer cell line; test: NCI five-dose testing; conditions: Homo sapiens; for LC50 (lethal concentration 50): PC-3, read-out: LD50 (lethal dose 50); for IC50 / IC (TGI): PC-3; for IC50: read-out: IC50; for IC (TGI): read-out: TGI (total growth inhibition concentration)
Description: as §1

[7] = system: OVCAR-4 ovarian cancer cell line; test: NCI five-dose testing; conditions: Homo sapiens; for IC50 / IC (TGI): OVCAR-4; for LC50 (lethal concentration 50): OVCAR-4, read-out: LD50 (lethal dose 50); for IC (TGI): read-out: TGI (total growth inhibition concentration)
Description: as §1

[8] = system: U251 CNS cancer cell line; test: NCI five-dose testing; conditions: Homo sapiens; for CC50: U-251, read-out: LD50 (lethal dose 50); for IC50 / IC (TGI): U-251, U251; for IC50: read-out: IC50; for IC (TGI): read-out: TGI (total growth inhibition concentration)
Description: as §1

[9] = system: SK-MEL-5 melanoma cell line; test: NCI five-dose testing; conditions: Homo sapiens; for IC50 / IC (TGI): SK-MEL-5; for LC50 (lethal concentration 50): SK-MEL-5, read-out: LD50 (lethal dose 50); for IC (TGI): read-out: TGI (total growth inhibition concentration)
Description: as §1

[10] = system: HT-29 colon cancer cell line; test: NCI five-dose testing; conditions: Homo sapiens; for CC50: HT-29, read-out: LD50 (lethal dose 50); for IC50 / IC (TGI): HT-29; for IC50: read-out: IC50; for IC (TGI): read-out: TGI (total growth inhibition concentration)
Description: as §1

[11] = system: MDA-MB-468 breast cancer cell line; test: NCI five-dose testing; conditions: Homo sapiens; for IC50 / IC (TGI): MDA-MB-468; for CC50: MDA-MB-468, read-out: LD50 (lethal dose 50); for IC (TGI): read-out: TGI (total growth inhibition concentration)
Description: as §1

[12] = system: A498 renal cancer cell line; test: NCI five-dose testing; conditions: Homo sapiens; for IC50 / IC (TGI): A498; for LC50 (lethal concentration 50%): A498, read-out: LD50 (lethal dose 50); for IC (TGI): read-out: TGI (total growth inhibition concentration)
Description: as §1

SMILES	IC50 (renal cancer cell lines)	IC50 [1]	IC50 (breast cancer cell lines)	IC50 (Leukaemia cell lines)	IC50 [2]	IC50 [3]	IC50 (melanoma cell lines)	IC50 (colon cancer cell lines)	IC50 (CNS cancer cell lines)	IC50 [4]	IC (TGI) [4]	LD50 (lethal dose 50) [4]	CC50 [5]	IC50 [5]	IC (TGI) [5]	LC50 (lethal concentration 50) [6]	IC50 [6]	IC (TGI) [6]	IC50 [7]	LC50 (lethal concentration 50) [7]	further results
COc1cccc(-c2nn(-c3ccccc3)cc2-c2ccnc(NCCNS(=O)(=O)c3ccc(C(F)(F)F)cc3)c2)c1 [Compound 1g, N-(2-((4-(3-(3-Methoxyphenyl)-1-phenyl-1H-pyrazol-4-yl)pyridin-2-yl)amino)ethyl)-4-(trifluoromethyl)benzenesulfonamide]	5.32 µM	13 µM	4.05 µM	3.35 µM	6.36 µM	6.1 µM	4.94 µM	4.91 µM	5.28 µM	2.12 µM	6.8 µM	> 100 µM	> 100 µM	2.87 µM	19 µM	> 100 µM	2.86 µM	26.7 µM	2.94 µM	> 100 µM	inhibition at 10 µM (NCI-60 cell line panel): 92.8%; IC (TGI) [7]: > 100 µM; CC50 [8]: 63.4 µM; IC50 [8]: 3.54 µM; IC (TGI) [8]: 13.9 µM; IC50 [9]: 1.72 µM; LC50 (lethal concentration 50) [9]: 5.6 µM; IC (TGI) [9]: 3.1 µM; CC50 [10]: 37.7 µM; IC50 [10]: 2.32 µM; IC (TGI) [10]: 5.7 µM; IC50 [11]: 3.31 µM; CC50 [11]: > 100 µM; IC (TGI) [11]: > 100 µM; IC50 [12]: 3.4 µM; LC50 (lethal concentration 50%) [12]: > 100 µM; IC (TGI) [12]: 6.5 µM
COc1cccc(-c2nn(-c3ccccc3)cc2-c2ccnc(NCCCNS(=O)(=O)c3cccc(F)c3)c2)c1 [Compound 2h, 3-Fluoro-N-(3-((4-(3-(3-methoxyphenyl)-1-phenyl-1H-pyrazol-4-yl)pyridin-2-yl)amino)propyl)benzenesulfonamide]	4.25 µM	4.65 µM	3.49 µM	3.18 µM	5.01 µM	3.88 µM	4.14 µM	4.69 µM	4.49 µM	2.42 µM	> 100 µM	> 100 µM	> 100 µM	3.31 µM	> 100 µM	> 100 µM	2.97 µM	> 100 µM	3.28 µM	> 100 µM	inhibition at 10 µM (NCI-60 cell line panel): 76.8%; IC (TGI) [7]: > 100 µM; CC50 [8]: > 100 µM; IC50 [8]: 4.83 µM; IC (TGI) [8]: > 100 µM; IC50 [9]: 1.86 µM; LC50 (lethal concentration 50) [9]: 7.6 µM; IC (TGI) [9]: 3.7 µM; CC50 [10]: > 100 µM; IC50 [10]: 2.87 µM; IC (TGI) [10]: 18.8 µM; IC50 [11]: 3.49 µM; CC50 [11]: > 100 µM; IC (TGI) [11]: 30.4 µM; IC50 [12]: 3.52 µM; LC50 (lethal concentration 50%) [12]: > 100 µM; IC (TGI) [12]: > 100 µM
O=S(=O)(NCCNc1cc(-c2cn(-c3ccccc3)nc2-c2cccc(O)c2)ccn1)c1ccc(C(F)(F)F)cc1 [Compound 1o, N-(2-((4-(3-(3-Hydroxyphenyl)-1-phenyl-1H-pyrazol-4-yl)pyridin-2-yl)amino)ethyl)-4-(trifluoromethyl)benzenesulfonamide]	2.45 µM	3.45 µM	2.11 µM	2.34 µM	3.03 µM	3.12 µM	2.37 µM	2.38 µM	2.67 µM	1.97 µM	6.2 µM	52 µM	> 100 µM	2.48 µM	6.5 µM	93.4 µM	2.47 µM	10.9 µM	2.85 µM	81.2 µM	IC (TGI) [7]: 16.9 µM; CC50 [8]: 44.1 µM; IC50 [8]: 2.65 µM; IC (TGI) [8]: 7.2 µM; IC50 [9]: 1.78 µM; LC50 (lethal concentration 50) [9]: 6.3 µM; IC (TGI) [9]: 3.3 µM; CC50 [10]: 35.1 µM; IC50 [10]: 2.04 µM; IC (TGI) [10]: 5.4 µM; IC50 [11]: 2.05 µM; CC50 [11]: > 100 µM; IC (TGI) [11]: 5.02 µM; IC50 [12]: 1.71 µM; LC50 (lethal concentration 50%) [12]: 41.4 µM; IC (TGI) [12]: 14.5 µM
